Experimental data reported in PMC5727165, “A switch in nucleotide affinity governs activation of the Src and Tec family kinases” (Scientific Reports, 2017).
Where two headings read alike, the source gives them in different places.

Legend:
Itk^32K L351A = target: T1, Itk^32K L351A (Homo sapiens, UniProt Q08881, L351A); experiment: Fluorescence anisotropy binding of Mant-labelled nucleotides
T1 construct: Human Itk^171–620 (Itk^32K); GST (cleaved yes); made in house; host or cells: baculovirus-infected Sf9 insect cells
T1 sequence (Q08881 171-620 L351A): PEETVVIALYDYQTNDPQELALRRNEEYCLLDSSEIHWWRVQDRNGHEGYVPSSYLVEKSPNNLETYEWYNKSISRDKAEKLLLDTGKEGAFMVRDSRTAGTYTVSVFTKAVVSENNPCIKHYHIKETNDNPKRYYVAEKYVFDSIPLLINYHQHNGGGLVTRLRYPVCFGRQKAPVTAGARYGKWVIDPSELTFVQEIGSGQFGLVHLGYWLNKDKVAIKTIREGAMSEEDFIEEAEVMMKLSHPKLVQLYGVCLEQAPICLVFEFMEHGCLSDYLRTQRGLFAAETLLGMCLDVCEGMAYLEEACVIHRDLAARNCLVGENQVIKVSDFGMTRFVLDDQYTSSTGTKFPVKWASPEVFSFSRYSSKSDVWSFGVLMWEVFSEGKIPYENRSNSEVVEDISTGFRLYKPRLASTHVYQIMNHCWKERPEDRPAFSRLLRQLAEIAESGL
From the text: Figure 3 An allosteric switch triggers nucleotide exchange. (a) Hydrophobic stack conservation in Src family kinases. The table illustrates the amino acid identity at each of the three positions in the hydrophobic stack in addition to the invariant tryptophan (Trp260 in Src) for all Src family kinase members. The positions are presented according to their N- to C-terminal order in the primary sequences. Where it was not possible to unambiguously determine the identity of the amino acid contributed by the SH2-kinase variable linker (V3), the residue is denoted by a question mark. (b) Small angle X-ray scattering of Itk^32K L351A (black). The scattering curve for wild type Itk^32K (cyan) is overlaid for comparison. […] (c) Rigid body modelling of Itk^32K L351A and fit to ab initio molecular envelope. Displacement of both the SH3 and SH2 domains is required for a good fit to the experimental scattering curve. (d) Determination of the binding constants of Itk^32K L351A for nucleotides by fluorescence anisotropy. […] (e) Determination of the thermal stabilities and relative binding affinities of non-phosphorylated Src^32KΔC L255A for nucleotides by differential scanning fluorimetry. […] TEXT PRINTED IN THE PICTURE: (d) Mant-ADP: Itk^32K L351A (non-phos) Kd (μM): 21.0 ± 2.1 | (d) Mant-ATP: Itk^32K L351A (non-phos) Kd (μM): 31.7 ± 2.7 | (e) ADP: Src^32KΔC L255A (non-phos) [nuc]1/2 (μM): 310 ± 20; Src^32KΔC L255A (non-phos) Tm^max (°C): 52.9; Src^32KΔC L255A (non-phos) ΔTm^max (°C): + 6.8 | (e) ATP: Src^32KΔC L255A (non-phos) [nuc]1/2 (μM): 100 ± 10; Src^32KΔC L255A (non-phos) Tm^max (°C): 54.2; Src^32KΔC L255A (non-phos) ΔTm^max (°C): + 8.1 | (e) apo: Src^32KΔC L255A (non-phos) Tm^max (°C): 46.1
To establish whether hydrophobic stack disassembly triggers a switch in nucleotide binding of the kinase domain, we measured the binding of both unphosphorylated and activation loop phosphorylated (pY511) Itk^32K L351A to ADP and ATP.
The binding constants for ADP and AMPPNP were determined for Src and Itk proteins by fluorescence anisotropy, using 2′/3′-Mant-labelled nucleotides (Jena Bioscience). Increasing concentrations of Itk^32K, Itk^L351A or Src^32K were incubated with 40 μM Mant-nucleotide in 30 mM Tris pH 7.5, 200 mM NaCl, 5 mM MgCl2, and 1 mM TCEP. Measurements were made with a Perkin Elmer LS50B fluorimeter (λex = 355 nm, λem = 447 nm) at 20 °C. For each data point 50–60 measurements, each with an integration time of 1 s, were averaged. For competition nucleotide displacement assays, 40–80 μM of protein was incubated with 40 μM Mant-ADP until equilibrium was established. Unlabelled nucleotide was titrated into the reaction and fluorescence anisotropy monitored. The equilibrium inhibition constant for the unlabelled nucleotide was calculated from the fitted curve.

Src^32KΔC = target: T2, Src^32KΔC (Mus musculus, UniProt P05480); experiment: Differential scanning fluorimetry (thermal stability vs nucleotide concentration); assay type: binding; settings: vs AMPPNP
T2 construct: mouse Src^85-523 (Src^32KΔC); GST (cleaved yes); made in house; host or cells: baculovirus-infected Sf9 insect cells
T2 sequence (P05480 85-523, stated change not applied): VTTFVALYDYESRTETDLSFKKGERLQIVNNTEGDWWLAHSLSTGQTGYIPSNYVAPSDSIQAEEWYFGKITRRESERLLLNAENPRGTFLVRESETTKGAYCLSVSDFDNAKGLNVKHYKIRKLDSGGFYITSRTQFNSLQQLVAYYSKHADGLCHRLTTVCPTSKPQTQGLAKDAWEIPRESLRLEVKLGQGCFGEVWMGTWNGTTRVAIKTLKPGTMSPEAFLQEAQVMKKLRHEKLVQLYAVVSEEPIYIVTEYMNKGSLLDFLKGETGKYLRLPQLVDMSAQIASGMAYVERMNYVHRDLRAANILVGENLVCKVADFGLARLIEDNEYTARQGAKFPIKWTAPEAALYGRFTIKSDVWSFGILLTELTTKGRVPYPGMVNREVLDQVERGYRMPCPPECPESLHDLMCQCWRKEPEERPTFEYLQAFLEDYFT
From the text: Having observed that Itk^32K binds and is stabilised by ADP in the absence of a C-terminal tail, we investigated whether the C-terminal tail of Src influences its nucleotide binding or conformation in vitro, using a construct of Src lacking its C-tail (Src^32KΔC) and a SH2 domain mutant of Src that is incapable of binding phosphotyrosine peptides (Src^32K R175L, Supplementary Fig. 3a,b)[39]. […] Thermal stability measurements support the stabilisation of Src^32KΔC by ADP (Supplementary Fig. 6a). Thermal stabilities as a function of nucleotide concentration were measured by differential scanning fluorimetry (DSF). Samples contained 0.1 mg/ml protein in 50 mM Tris pH 7.5, 150 mM NaCl, 1 mM TCEP, and 5 mM MgCl2 with ADP, ATP, or AMPPNP concentrations ranging from 0–16 mM. Samples were measured in triplicate using a BioRad iQ™5 Multicolor Real-Time PCR Detection System. For detection of phosphorylated protein, samples were diluted and 1 ng and 15 ng were loaded to SDS-PAGE for Src and Itk proteins, respectively. Phosphorylation was measured by immunoblot.

- Kd (Itk^32K L351A; Itk^32K L351A non-phosphorylated, read-out: Kd): 21 µM
- Kd (Itk^32K L351A; activation loop-phosphorylated (pTyr511) Itk^32K L351A, read-out: Kd (binding constant)): 30 µM
- thermal stabilisation compared with other nucleotides (Src^32KΔC): higher thermal stability
Compound: Nc1ncnc2c1ncn2[C@@H]1O[C@H](COP(=O)(O)OP(=O)(O)O)[C@@H](O)[C@H]1O [ADP]
